Assay results published in patent US20250230193A1, “CYCLIC COMPOUND HAVING SELECTIVE KRAS INHIBITORY EFFECT ON HRAS AND NRAS” (CHUGAI SEIYAKU KABUSHIKI KAISHA, priority 2022, published 2025).
Where a SMILES comes first, the peptide text is derived from it. Bridges are numbered along the chain shown (N, C = ends). [ ]: non-standard residue; d: D form. The star is where a group is joined. hPhe(3-Cl-4-CF3) = N[C@@H](CCc1ccc(C(F)(F)F)c(Cl)c1)C(=O)O; NPrPhe(4-CF3) = CCCN[C@@H](Cc1ccc(C(F)(F)F)cc1)C(=O)O; NMeGly(cPent) = CN[C@H](C(=O)O)C1CCCC1; Pro(4,4-F2) = O=C(O)[C@@H]1CC(F)(F)CN1; Pro(4,4-Me2) = CC1(C)CN[C@H](C(=O)O)C1; Pro(4S-Me) = C[C@@H]1CN[C@H](C(=O)O)C1; Hyp = O=C(O)[C@@H]1C[C@@H](O)CN1; NMeD = CN[C@@H](CC(=O)O)C(=O)O; NMeL = CN[C@@H](CC(C)C)C(=O)O; Morpholide = C1CN(*)CCO1; NMeA = CN[C@@H](C)C(=O)O; Ac5c = NC1(C(=O)O)CCCC1; Aze = O=C(O)[C@@H]1CCN1; Ac4c = NC1(C(=O)O)CCC1; Sar = CNCC(=O)O

Columns and labels:
[1] = biological target: GDP-bound NRAS wild-type protein (Homo sapiens, UniProt P01111); test: Binding to NRAS by surface plasmon resonance (SPR), Single Cycle Kinetics; conditions: KD ratio NRAS/KRAS, SPR
[2] = biological target: GDP-bound HRAS wild-type protein (Homo sapiens, UniProt P01112); test: Binding to HRAS by surface plasmon resonance (SPR), Single Cycle Kinetics; conditions: KD ratio HRAS/KRAS, SPR
Chain of GDP-bound HRAS wild-type protein (P01112 whole entry): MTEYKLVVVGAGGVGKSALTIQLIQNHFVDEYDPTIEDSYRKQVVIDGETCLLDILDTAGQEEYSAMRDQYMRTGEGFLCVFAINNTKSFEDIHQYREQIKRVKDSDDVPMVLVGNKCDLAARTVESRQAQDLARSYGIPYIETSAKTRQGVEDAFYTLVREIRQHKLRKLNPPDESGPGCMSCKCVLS

Chain of GDP-bound NRAS wild-type protein (P01111 whole entry): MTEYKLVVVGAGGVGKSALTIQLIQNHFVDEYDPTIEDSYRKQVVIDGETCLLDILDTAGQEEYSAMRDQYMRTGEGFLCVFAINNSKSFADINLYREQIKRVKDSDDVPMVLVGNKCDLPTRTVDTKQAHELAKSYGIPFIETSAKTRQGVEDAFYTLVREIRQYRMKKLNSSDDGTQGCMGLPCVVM

| SMILES | NRAS/KRAS (ratio of KD value with respect to GDP-bound NRAS wild-type protein to KD value with respect to KRAS) [1] | HRAS/KRAS (ratio of KD value with respect to GDP-bound HRAS wild-type protein to KD value with respect to KRAS) [2] |
| --- | --- | --- |
| CCCN1C(=O)[C@@H]2CCN2C(=O)[C@H](C)N(C)C(=O)[C@H]([C@@H](C)CC)NC(=O)[C@H](CC(C)C)N(C)C(=O)C[C@@H](C(=O)N(C)C)N(C)C(=O)[C@H](C2CCCC2)N(C)C(=O)C2(CCCC2)NC(=O)[C@@H]2CC(F)(F)CN2C(=O)[C@H](CCc2ccc(C(F)(F)F)c(Cl)c2)NC(=O)CN(C)C(=O)[C@@H]1Cc1ccc(C(F)(F)F)cc1 [PP0436] ([NMeL]I[NMeA][Aze][NPrPhe(4-CF3)][Sar][hPhe(3-Cl-4-CF3)][Pro(4,4-F2)][Ac5c][NMeGly(cPent)][NMeD]-NMe2; lactam N-11) | C (A compound having a KD ratio of 0.1 or more and less than 3 is denoted as C) | C (A compound having a KD ratio of 0.1 or more and less than 3 is denoted as C) |
| CCCN1C(=O)[C@@H]2CCN2C(=O)[C@H](C)N(C)C(=O)[C@H]([C@@H](C)CC)NC(=O)[C@H](CC(C)C)N(C)C(=O)C[C@@H](C(=O)N(C)C)N(C)C(=O)[C@H](C2CCCC2)N(C)C(=O)C2(CCC2)NC(=O)[C@@H]2CC(F)(F)CN2C(=O)[C@H](CCc2ccc(C(F)(F)F)c(Cl)c2)NC(=O)CN(C)C(=O)[C@@H]1Cc1ccc(C(F)(F)F)cc1 [PP0437] ([NMeL]I[NMeA][Aze][NPrPhe(4-CF3)][Sar][hPhe(3-Cl-4-CF3)][Pro(4,4-F2)][Ac4c][NMeGly(cPent)][NMeD]-NMe2; lactam N-11) | C (A compound having a KD ratio of 0.1 or more and less than 3 is denoted as C) | B (a compound having 3 or more and less than 10 is denoted as B) |
| CCCN1C(=O)[C@@H]2CCN2C(=O)[C@H](C)N(C)C(=O)[C@H]([C@@H](C)CC)NC(=O)[C@H](CC(C)C)N(C)C(=O)C[C@@H](C(=O)N(C)C)N(C)C(=O)[C@H](C2CCCC2)N(C)C(=O)C2(CCCC2)NC(=O)[C@@H]2C[C@@H](OCC)CN2C(=O)[C@H](CCc2ccc(C(F)(F)F)c(Cl)c2)NC(=O)CN(C)C(=O)[C@@H]1Cc1ccc(C(F)(F)F)cc1 [PP0438] ([NMeL]I[NMeA][Aze][NPrPhe(4-CF3)][Sar][hPhe(3-Cl-4-CF3)][Hyp](Et)[Ac5c][NMeGly(cPent)][NMeD]-NMe2; lactam N-11) | C (A compound having a KD ratio of 0.1 or more and less than 3 is denoted as C) | C (A compound having a KD ratio of 0.1 or more and less than 3 is denoted as C) |
| CCCN1C(=O)[C@@H]2CCN2C(=O)CN(C)C(=O)[C@H]([C@@H](C)CC)NC(=O)[C@H](CC(C)C)N(C)C(=O)C[C@@H](C(=O)N(C)C)N(C)C(=O)[C@H](C2CCCC2)N(C)C(=O)C2(CCCC2)NC(=O)[C@@H]2CCCN2C(=O)[C@H](CCc2ccc(C(F)(F)F)c(Cl)c2)NC(=O)CN(C)C(=O)[C@@H]1Cc1ccc(C(F)(F)F)cc1 [PP0440] ([NMeL]I[Sar][Aze][NPrPhe(4-CF3)][Sar][hPhe(3-Cl-4-CF3)]P[Ac5c][NMeGly(cPent)][NMeD]-NMe2; lactam N-11) | C (A compound having a KD ratio of 0.1 or more and less than 3 is denoted as C) | B (a compound having 3 or more and less than 10 is denoted as B) |
| CCCN1C(=O)[C@@H]2CCN2C(=O)CN(C)C(=O)[C@H]([C@@H](C)CC)NC(=O)[C@H](CC(C)C)N(C)C(=O)C[C@@H](C(=O)N(C)C)N(C)C(=O)[C@H](C2CCCC2)N(C)C(=O)C2(CCC2)NC(=O)[C@@H]2CCCN2C(=O)[C@H](CCc2ccc(C(F)(F)F)c(Cl)c2)NC(=O)CN(C)C(=O)[C@@H]1Cc1ccc(C(F)(F)F)cc1 [PP0441] ([NMeL]I[Sar][Aze][NPrPhe(4-CF3)][Sar][hPhe(3-Cl-4-CF3)]P[Ac4c][NMeGly(cPent)][NMeD]-NMe2; lactam N-11) | C (A compound having a KD ratio of 0.1 or more and less than 3 is denoted as C) | C (A compound having a KD ratio of 0.1 or more and less than 3 is denoted as C) |
| CCCN1C(=O)[C@@H]2CCN2C(=O)CN(C)C(=O)[C@H]([C@@H](C)CC)NC(=O)[C@H](CC(C)C)N(C)C(=O)C[C@@H](C(=O)N(C)C)N(C)C(=O)[C@H](C2CCCC2)N(C)C(=O)C2(CCCC2)NC(=O)[C@@H]2CC(F)(F)CN2C(=O)[C@H](CCc2ccc(C(F)(F)F)c(Cl)c2)NC(=O)CN(C)C(=O)[C@@H]1Cc1ccc(C(F)(F)F)cc1 [PP0442] ([NMeL]I[Sar][Aze][NPrPhe(4-CF3)][Sar][hPhe(3-Cl-4-CF3)][Pro(4,4-F2)][Ac5c][NMeGly(cPent)][NMeD]-NMe2; lactam N-11) | C (A compound having a KD ratio of 0.1 or more and less than 3 is denoted as C) | C (A compound having a KD ratio of 0.1 or more and less than 3 is denoted as C) |
| CCCN1C(=O)[C@@H]2CCN2C(=O)CN(C)C(=O)[C@H]([C@@H](C)CC)NC(=O)[C@H](CC(C)C)N(C)C(=O)C[C@@H](C(=O)N(C)C)N(C)C(=O)[C@H](C2CCCC2)N(C)C(=O)C2(CCC2)NC(=O)[C@@H]2CC(F)(F)CN2C(=O)[C@H](CCc2ccc(C(F)(F)F)c(Cl)c2)NC(=O)CN(C)C(=O)[C@@H]1Cc1ccc(C(F)(F)F)cc1 [PP0443] ([NMeL]I[Sar][Aze][NPrPhe(4-CF3)][Sar][hPhe(3-Cl-4-CF3)][Pro(4,4-F2)][Ac4c][NMeGly(cPent)][NMeD]-NMe2; lactam N-11) | C (A compound having a KD ratio of 0.1 or more and less than 3 is denoted as C) | C (A compound having a KD ratio of 0.1 or more and less than 3 is denoted as C) |
| CCCN1C(=O)[C@@H]2CCN2C(=O)CN(C)C(=O)[C@H]([C@@H](C)CC)NC(=O)[C@H](CC(C)C)N(C)C(=O)C[C@@H](C(=O)N(C)C)N(C)C(=O)[C@H](C2CCCC2)N(C)C(=O)C2(CCCC2)NC(=O)[C@@H]2C[C@@H](OCC)CN2C(=O)[C@H](CCc2ccc(C(F)(F)F)c(Cl)c2)NC(=O)CN(C)C(=O)[C@@H]1Cc1ccc(C(F)(F)F)cc1 [PP0444] ([NMeL]I[Sar][Aze][NPrPhe(4-CF3)][Sar][hPhe(3-Cl-4-CF3)][Hyp](Et)[Ac5c][NMeGly(cPent)][NMeD]-NMe2; lactam N-11) | C (A compound having a KD ratio of 0.1 or more and less than 3 is denoted as C) | C (A compound having a KD ratio of 0.1 or more and less than 3 is denoted as C) |
| CCCN1C(=O)[C@@H]2CCN2C(=O)CN(C)C(=O)[C@H]([C@@H](C)CC)NC(=O)[C@H](CC(C)C)N(C)C(=O)C[C@@H](C(=O)N(C)C)N(C)C(=O)[C@H](C2CCCC2)N(C)C(=O)C2(CCC2)NC(=O)[C@@H]2C[C@@H](OCC)CN2C(=O)[C@H](CCc2ccc(C(F)(F)F)c(Cl)c2)NC(=O)CN(C)C(=O)[C@@H]1Cc1ccc(C(F)(F)F)cc1 [PP0445] ([NMeL]I[Sar][Aze][NPrPhe(4-CF3)][Sar][hPhe(3-Cl-4-CF3)][Hyp](Et)[Ac4c][NMeGly(cPent)][NMeD]-NMe2; lactam N-11) | C (A compound having a KD ratio of 0.1 or more and less than 3 is denoted as C) | C (A compound having a KD ratio of 0.1 or more and less than 3 is denoted as C) |
| CCCN1C(=O)CN(C)C(=O)CN(C)C(=O)[C@H]([C@@H](C)CC)NC(=O)[C@H](CC(C)C)N(C)C(=O)C[C@@H](C(=O)N2CCOCC2)N(C)C(=O)[C@H](C2CCCC2)N(C)C(=O)C2(CCCC2)NC(=O)[C@@H]2CC(C)(C)CN2C(=O)[C@H](CCc2ccc(C(F)(F)F)c(Cl)c2)NC(=O)CN(C)C(=O)[C@@H]1Cc1ccc(C(F)(F)F)cc1 [PP0446] ([NMeL]I[Sar][Sar][NPrPhe(4-CF3)][Sar][hPhe(3-Cl-4-CF3)][Pro(4,4-Me2)][Ac5c][NMeGly(cPent)][NMeD]-Morpholide; lactam N-11) | B (a compound having 3 or more and less than 10 is denoted as B) | C (A compound having a KD ratio of 0.1 or more and less than 3 is denoted as C) |
| CCCN1C(=O)CN(C)C(=O)CN(C)C(=O)[C@H]([C@@H](C)CC)NC(=O)[C@H](CC(C)C)N(C)C(=O)C[C@@H](C(=O)N2CCOCC2)N(C)C(=O)[C@H](C2CCCC2)N(C)C(=O)C2(CCCC2)NC(=O)[C@@H]2C[C@H](C)CN2C(=O)[C@H](CCc2ccc(C(F)(F)F)c(Cl)c2)NC(=O)CN(C)C(=O)[C@@H]1Cc1ccc(C(F)(F)F)cc1 [PP0447] ([NMeL]I[Sar][Sar][NPrPhe(4-CF3)][Sar][hPhe(3-Cl-4-CF3)][Pro(4S-Me)][Ac5c][NMeGly(cPent)][NMeD]-Morpholide; lactam N-11) | B (a compound having 3 or more and less than 10 is denoted as B) | C (A compound having a KD ratio of 0.1 or more and less than 3 is denoted as C) |
| CCCN1C(=O)CN(C)C(=O)CNC(=O)[C@H]([C@@H](C)CC)NC(=O)[C@H](CC(C)C)N(C)C(=O)C[C@@H](C(=O)N2CCOCC2)N(C)C(=O)[C@H](C2CCCC2)N(C)C(=O)C2(CCCC2)NC(=O)[C@@H]2CC(C)(C)CN2C(=O)[C@H](CCc2ccc(C(F)(F)F)c(Cl)c2)NC(=O)CN(C)C(=O)[C@@H]1Cc1ccc(C(F)(F)F)cc1 [PP0448] ([NMeL]IG[Sar][NPrPhe(4-CF3)][Sar][hPhe(3-Cl-4-CF3)][Pro(4,4-Me2)][Ac5c][NMeGly(cPent)][NMeD]-Morpholide; lactam N-11) | B (a compound having 3 or more and less than 10 is denoted as B) | C (A compound having a KD ratio of 0.1 or more and less than 3 is denoted as C) |
